# Tests used:
# ToxT [1] = target: T1, ToxT (Vibrio cholerae, UniProt P0C6D6); assay: intrinsic tryptophan fluorescence quenching, logarithmic plot; format: binding
# T1 construct: gene tcpN; 6xHis fusion from pHIS-Tev plasmid, expressed in E. coli BL21(DE3), Ni-agarose purified
# ToxT [2] = target: T1, ToxT; format: binding; settings: 1.0 µM ToxT pre-incubated with TB (40 mM) 20 min, 1 nM PtcpA DNA, pH 7.5
# [3] = target: T2, ToxT (His6/NBP-ToxT fusion) (Vibrio cholerae N16961?) (UniProt P0C6D6); assay: competition; settings: 10 mM Tris-HCl pH 7.5, 100 mM KCl, 1 mM EDTA, 1 mM DTT, 200 µg/mL BSA, 10% glycerol, […] (temperature not stated)
# T2 sequence: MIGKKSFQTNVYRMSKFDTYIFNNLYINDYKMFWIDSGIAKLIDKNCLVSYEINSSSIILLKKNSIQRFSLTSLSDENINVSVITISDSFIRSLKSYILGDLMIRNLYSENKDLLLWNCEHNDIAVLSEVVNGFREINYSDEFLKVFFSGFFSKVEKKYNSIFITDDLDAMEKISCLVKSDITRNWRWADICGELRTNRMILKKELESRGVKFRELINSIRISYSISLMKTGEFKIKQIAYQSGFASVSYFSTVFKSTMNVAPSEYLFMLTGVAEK
molecule,measurement,setting,value
"CCCC(=O)O [SB, sodium butyrate]",Kd,ToxT [1],2600 ± 30 µM
"CCCC(=O)OCC(COC(=O)CCC)OC(=O)CCC [TB, tributyrate]",inhibition of DNA binding,ToxT [2],"tributyrate (TB), was used, and it showed no inhibition on ToxT-DNA binding"
ATTGCTGAGCTAAAGGGGCTGGAAATTCAATGTCATCAGGCTGTTGCCAAGTGACGCGATTCAGTGCGGCTAAATAGAGCGAAGTTAATTGATTCATACTATTATTCAATTTGACGCTTTACCCGATTACCCTAGCTACCTGCAATACCA (double strand) [nonspecific competitor DNA],binding,[3],no binding
